Test results published in US20220047569A1, “METHOD AND COMPOUND FOR USE, IN TREATING AND/OR PREVENTING NETOSIS” (Jubilant EpiPad LLC, priority 2020, published 2022).

The compounds below were run on Histone H3 Citrullination in Neutrophils (assay: Citrullination ELISA (Citrullinated Histone H3) in calcium ionophore stimulated neutrophils). Conditions: Neutrophil; human neutrophils, 25 μM calcium ionophore, CitH3 ELISA.
Assay type: cell-based
How it was run: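 Freshly isolated human donor neutrophils in RPMI with 2% BSA and 1 mM CaCl2 were pre-incubated 30 min with compound (10, 1, 0.1 μM), then stimulated 30 min with 25 μM calcium ionophore. After S7 nuclease digestion, lysates were assayed by citrullinated histone H3 ELISA (450 nm); IC50 from sigmoidal fits.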

Structure (SMILES)	IC50
COc1cccc(Cn2c(-c3nc4cc(C(=O)N5CCC[C@@H](N)C5)ccn4c3C)cc3ccc(F)cc32)c1 [Compound 70, (R)-(3-aminopiperidin-1-yl)(2-(6-fluoro-1-(3-methoxybenzyl)-1H-indol-2-yl)-3-methylimidazo[1,2-a]pyridin-7-yl)methanone]	< 100 nM
N[C@@H]1CCCN(C(=O)c2cc3c4c(c2)nc(-c2cc5ccc(F)cc5n2CC2CC2)n4CCO3)C1 [Compound 114, (R)-(3-aminopiperidin-1-yl)(2-(1-(cyclopropylmethyl)-6-fluoro-1H-indol-2-yl)-3,4-dihydro-5-oxa-1,2a-diazaacenaphthylen-7-yl)methanone]	< 100 nM
N[C@@H]1CCCN(C(=O)c2cc3c4c(c2)nc(-c2cc5cccc(Cl)c5n2Cc2ncccc2F)n4CCO3)C1 [Compound 120, (R)-(3-aminopiperidin-1-yl)(2-(7-chloro-1-((3-fluoropyridin-2-yl)methyl)-1H-indol-2-yl)-3,4-dihydro-5-oxa-1,2a-diazaacenaphthylen-7-yl)methanone]	100 to 1000 nM
Cc1c(-c2cc3ccc(F)cc3n2Cc2ccncc2)nc2cc(C(=O)N3CCC[C@@H](N)C3)ccn12 [Compound 68, (R)-(3-aminopiperidin-1-yl)(2-(6-fluoro-1-(pyridin-4-ylmethyl)-1H-indol-2-yl)-3-methylimidazo[1,2-a]pyridin-7-yl)methanone]	< 100 nM
Cc1cc(C(=O)N2CCC[C@@H](N)C2)cc2nc(-c3cc4ccccc4n3CC3CC3)c(C)n12 [Compound 25, (R)-(3-aminopiperidin-1-yl)(2-(1-(cyclopropylmethyl)-1H-indol-2-yl)-3,5-dimethylimidazo[1,2-a]pyridin-7-yl)methanone]	100 to 1000 nM
COc1cc2cc(-c3nc4cc(C(=O)N5CCC[C@@H](N)C5)cc5c4n3CCO5)n(CC3CC3)c2cc1OC [Compound 103, (R)-(3-aminopiperidin-1-yl)(2-(1-(cyclopropylmethyl)-5,6-dimethoxy-1H-indol-2-yl)-3,4-dihydro-5-oxa-1,2a-diazaacenaphthylen-7-yl)methanone]	< 100 nM
COc1ccc(Cn2c(-c3nc4cc(C(=O)N5CCC[C@@H](N)C5)cc5c4n3CCO5)cc3ccc(F)cc32)cc1 [Compound 136, (R)-(3-aminopiperidin-1-yl)(2-(6-fluoro-1-(4-methoxybenzyl)-1H-indol-2-yl)-3,4-dihydro-5-oxa-1,2a-diazaacenaphthylen-7-yl)methanone]	> 1000 nM
N[C@@H]1CCCN(C(=O)c2cc3c4c(c2)nc(-c2cc5ccccc5n2Cc2cccnc2)n4CCO3)C1 [Compound 102, (R)-(3-aminopiperidin-1-yl)(2-(1-(pyridin-3-ylmethyl)-1H-indol-2-yl)-3,4-dihydro-5-oxa-1,2a-diazaacenaphthylen-7-yl)methanone]	< 100 nM
CC(C)Cn1c(-c2nc3cc(C(=O)N4CCC[C@@H](N)C4)cc4c3n2CCO4)cc2ccccc21 [Compound 117, (R)-(3-aminopiperidin-1-yl)(2-(1-isobutyl-1H-indol-2-yl)-3,4-dihydro-5-oxa-1,2a-diazaacenaphthylen-7-yl)methanone]	100 to 1000 nM
